The values that follow come from patent publication EP0101441B1, “ANTI-VIRAL COMPOSITIONS” (SYNTEX (U.S.A.) INC., priority 1982, dated 1983).

Some results are limits rather than exact numbers.

One series deals with HSV-1-227. As to the kind of experiment: Viral plaque titration in human fetal fibroblasts (HFF). The note with it: Example 3, drug µg/ml: G* 2.0, PAA 80, combination 2.0+80; for VT (virus titre): HFF cells, no-drug control VT 28; for FTR (fold titre reduction): ratio of control virus titre to that of the test. In kind it is cell-based, Herpes simplex virus. The procedure: (§1) Human fetal fibroblasts (HFF) derived from fetal tissues were used in this study. Cells were grown and maintained in Basal Medium Eagle (BME) supplemented with 0.112% sodium bicarbonate, 2 mML- glutamine, 2 mg% Neomycin and 20% (vol/vol) calf serum.
(§2) A viral plaque titration method (Roizman and Roane, 1961) was used to determine the titer of the HSV strain. Tissue culture dishes (35 by 10 mm, Corning) were seeded with cells and used for assays when they were approximately 75% monolayer. Volumes (0.2 ml) of logarithmic dilutions of the virus strain were inoculated onto each of two tissue culture dishes and adsorbed for 1 hr with intermittent shaking, the inoculum was removed and 2 ml of 20% BME containing 0.5% human immune serum globulin was added. After a 48 h incubation period at 36°C in a 5% C02 atmosphere, the overlay m'edium was removed, and the cell sheets were stained with a 0.05% aqueous crystal violet solution. The plaque numbers were counted with the aid of a Nikon profile projector which magnified the dishes 10x. Duplicate results were averaged, and the number of plaque-forming units (PFU) was calculated. The virus titre is thus expressed as a number of plaque forming units to be seen after growth under these conditions.
(§3) In order to make comparisons between the activities of the various drugs and combinations, experiments were conducted by plaque titration to determine for each drug its viral ED-50 (i.e. the concentration thereof which inhibits HSV plaque formation by 50% in the HFF cells, as compared with cell cultures in the absence of the drug). For this purpose, tissue culture dishes (35 by 10 mm) with HFF cell monolayers at 75% confluence were inoculated with approximately 50 plaque-forming units of virus per 0.2 ml, and the virus was allowed to adsorb for 1 hr with intermittent shaking. After removal of the inoculum, 2 ml of 20% BME with 0.5% immune globulin and threefold dilutions of the appropriate drug were added to duplicate dishes. One set of dishes received no drug and was later used for the "no-drug control". After a 48 h incubation period at 36°C in a 5% C02 atmosphere, the overlay medium was removed, the cells were stained as described above, and plaques were counted. After averaging the counts of duplicate plates, the fraction of plaques emerging in the presence of each drug dilution was calculated as a percent of the control. Each drug titration was plotted on semilogarithmic graph paper, with the number of plaques per dish as the vertical axis and the drug concentration as the horizontal axis. The viral ED50 was calculated as that amount of drug per ml of overlay medium that inhibited plaque numbers by 50%, compared to a control (no drug), and this was read off the graphic plot of the data.
(§4) Three combinations of the drugs were then tested for activity by viral plaque titration, at concentrations which were multiples of the ED50 of the individual drugs. When G^*, BVDU or ACG was present, a concentration ten times that of its ED50 was used in the combination. This was intended to ensure a concentration sufficiently high to limit the numbers of partially drug-resistant virus plaques to a small fraction, in respect of each drug of the combination. In respect of PAA, a concentration of five times the ED50 was used, to avoid cell toxicity problems. The drugs were individually plaque-titrated at the same concentrations, for comparison purposes.
(§5) The results are given in the first Table headed "HSV-1-PATTON". The column headed "VT" gives the virus titre, expressed in plaque-forming units (PFU) per ml, x10^5; of course, the lower the figure, the greater the inhibitory, anti-viral effect of the tested drug (D). The column headed "FTR" gives the fold titre reduction which is the ratio of virus titre for the control, i.e. no drug, to that of the given test. […]

For series [1], the system named is HSV-1-PATTON. The series is described as above. In kind it is cell-based, Herpes simplex virus. The conditions noted are these: Example 1, drug µg/ml: G* 1.2, BVDU 0.11, ACG 2.0, PAA 250, same in combinations; for VT (virus titre): HFF cells, no-drug control VT 147; for FTR (fold titre reduction): ratio of control virus titre to that of the test. The method, then:
as §1, §2, §3, §4, §5

The subject of a further series is HSV-2-EL4. Described as above. In kind it is cell-based, Herpes simplex virus. The note with it: for VT (virus titre): HFF cells, no-drug control VT 750; for FTR (fold titre reduction): ratio of control virus titre to that of the test.
For the next series, the system named is HSV-2-EL6. Described as above. The series is classed as cell-based, Herpes simplex virus. The conditions noted are these: for VT (virus titre): HFF cells; for FTR (fold titre reduction): ratio of control virus titre to that of the test.
The next series deals with HSV-2-EL1. Described as above. The conditions noted are these: Example 3, drug µg/ml: G* 2.0, PAA 76, combination 2.0+76; for VT (virus titre): HFF cells, no-drug control VT 170; for FTR (fold titre reduction): ratio of control virus titre to that of the test. In kind it is cell-based, Herpes simplex virus.
Another series deals with HSV-2-EL3. Described as above. In kind it is cell-based, Herpes simplex virus. The note with it: Example 3, drug µg/ml: G* 2.0, PAA 82, combination 2.0+82; for VT (virus titre): HFF cells, no-drug control VT 77; for FTR (fold titre reduction): ratio of control virus titre to that of the test.
Another series concerns HSV-1-EL11. Described as above. The series is classed as cell-based, Herpes simplex virus. The conditions noted are these: Example 3, drug µg/ml: G* 0.4, PAA 25, combination 0.4+25; for VT (virus titre): HFF cells, no-drug control VT 8.0; for FTR (fold titre reduction): ratio of control virus titre to that of the test.
For series [2] the following is noted: cited from earlier work.
Series [3] concerns HSV-1-PATTON. As to the kind of experiment: Viral plaque titration in human fetal fibroblasts (HFF). In kind it is cell-based, Herpes simplex virus. The note with it: Example 2, drug µg/ml: G* 0.7, PFA 80, combination 0.7+80; for VT (virus titre): HFF cells, no-drug control VT 3400; for FTR (fold titre reduction): ratio of control virus titre to that of the test.
Where [4] appears, read: Example 3, drug µg/ml: G* 2.0, PAA 90, combination 2.0+90.
Where [5] appears, read: Example 3, no-drug control VT 180, drug µg/ml: G* 0.6, PAA 90, combination 0.6+90.
Where [6] appears, read: Example 3, drug µg/ml: G* 0.6, PAA 90, combination 0.6+90.
[7] abbreviates: Example 2, drug µg/ml: G* 3.0, PFA 80, combination 3.0+80.
Setting [8] is: Example 2, no-drug control VT 150, drug µg/ml: G* 0.7, PFA 80, combination 0.7+80.
Where [9] appears, read: Example 2, drug µg/ml: G* 0.7, PFA 80, combination 0.7+80.

In the case of `O=C(O)CP(=O)(O)O` [PAA, phosphonoacetic acid], the “VT (virus titre)” value is on record as 1.1 PFU per ml, x10^5 in the series with HSV-1-227; 3.2 PFU per ml, x10^5 in the series on HSV-1-PATTON [1]; 0.10 PFU per ml, x10^5 with HSV-2-EL4 (setting [4]); 31.0 PFU per ml, x10^5 in the series with HSV-2-EL6 (setting [5]); 0.34 PFU per ml, x10^5 in the series on HSV-2-EL1; 0.36 PFU per ml, x10^5 in the series on HSV-2-EL3. Further, the “VT (virus titre)” value in the series with HSV-1-EL11 is reported as 2.8 PFU per ml, x10^5. Further, the “FTR (fold titre reduction)” value is reported as 26 in the series with HSV-1-227; 50 in the series with HSV-1-PATTON [1]; 7,500 in the series with HSV-2-EL4 (setting [4]); 5.8 with HSV-2-EL6 (setting [6]); 500 with HSV-2-EL1; 210 with HSV-2-EL3. Moreover, the “FTR (fold titre reduction)” value in the series on HSV-1-EL11 was found to be 2.9. In addition, the “drug concentrations in topical formulation reported as skin irritant” value in series [2] is more than 100000 µM.
As for `O=C(O)P(=O)(O)O` [PFA, phosphonoformic acid], the “VT (virus titre)” value is 0.28 PFU per ml, x10^5 in the series on HSV-2-EL4 (setting [7]); 48 PFU per ml, x10^5 in the series on HSV-2-EL6 (setting [8]); 750 PFU per ml, x10^5 in the series on HSV-1-PATTON [3]. For the same compound, the “FTR (fold titre reduction)” value in the series with HSV-2-EL4 (setting [7]) is recorded as 2,700; in the series on HSV-2-EL6 (setting [9]) it was 3.1; with HSV-1-PATTON [3], 4.5. Also, the “skin harm of topical formulation” value in series [2] (drug concentrations in excess of 100 mM) is given as “do not appear harmful”.
As to `O=c1[nH]c(=O)n([C@H]2C[C@H](O)[C@@H](CO)O2)cc1/C=C/Br` [BVDU, bromovinyl-deoxyuridine], in the series with HSV-1-PATTON [1], the “VT (virus titre)” value is on record as 2.1 PFU per ml, x10^5 and the “FTR (fold titre reduction)” value amounted to 70.
With `Nc1nc2c(ncn2COCCO)c(=O)[nH]1` [ACG, 9 - [2 - hydroxyethoxymethyl]guanine], in the series with HSV-1-PATTON [1], the “VT (virus titre)” value is listed as 4.7 PFU per ml, x10^5 and the “FTR (fold titre reduction)” value amounted to 31.
Take `Nc1nc2c(ncn2COC(CO)CO)c(=O)[nH]1` [G*, 9 - [[2 - hydroxy - 1 - (hydroxymethyl)ethoxy]methyl]guanine]: the “VT (virus titre)” value is given as 0.25 PFU per ml, x10^5 in the series with HSV-1-227; 1.1 PFU per ml, x10^5 with HSV-1-PATTON [1]; 21 PFU per ml, x10^5 with HSV-2-EL4 (setting [7]); 5.9 PFU per ml, x10^5 in the series on HSV-2-EL4 (setting [4]); 40 PFU per ml, x10^5 in the series with HSV-2-EL6 (setting [8]); 0.90 PFU per ml, x10^5 in the series with HSV-2-EL6 (setting [5]). Moreover, the “VT (virus titre)” value in the series with HSV-2-EL1 was 8.9 PFU per ml, x10^5; with HSV-2-EL3 it was 10 PFU per ml, x10^5; with HSV-1-EL11 it was 0.37 PFU per ml, x10^5; with HSV-1-PATTON [3], 140 PFU per ml, x10^5. For the same compound, the “FTR (fold titre reduction)” value came out at 110 with HSV-1-227; 130 in the series with HSV-1-PATTON [1]; 36 in the series with HSV-2-EL4 (setting [7]); 130 with HSV-2-EL4 (setting [4]); 3.8 in the series on HSV-2-EL6 (setting [9]); 200 in the series on HSV-2-EL6 (setting [6]). Further, the “FTR (fold titre reduction)” value is 19 in the series with HSV-2-EL1, 7.7 in the series on HSV-2-EL3, 22 in the series on HSV-1-EL11 and 24 in the series with HSV-1-PATTON [3].
